Source: patent US6617357B2, “Compounds and their use as PDE inhibitors” (SmithKline Beecham Corporation, priority 2001, dated 2003)

| melting point [°C] | Structure (SMILES) |
| --- | --- |
| 113 | Cc1cc(C)c(S(=O)(=O)N(C)C)cc1[N+](=O)[O-] [Example 2, 2,4-Dimethyl-5-nitro(N,N-dimethyl)benzenesulfonamide] |
| 130 to 132 | COc1cc(C)c(S(=O)(=O)N(C)C)cc1[N+](=O)[O-] [Example 3, 4-Methoxy-2-methyl-5-nitro(N,N-dimethyl)benzenesulfonamide] |
